Experimental data: PubChem BioAssay (NCI)
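96-well plates; 48 h exposure; 5 concentrations. Endpoints by linear interpolation between flanking doses. Not reached: highest tested concentration assigned. GI50 is the concentration that inhibits growth by half. TGI: concentration producing complete growth inhibition.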

Tests used:
Experiment in all cases: NCI anticancer screen, dose series, 48 h
SNB-75 CNS = system: SNB-75 CNS
HL-60(TB) leukemia = system: HL-60(TB) leukemia
UACC-257 melanoma = system: UACC-257 melanoma
KM12 colon = system: KM12 colon
HCT-15 colon = system: HCT-15 colon
RXF 393 renal = system: RXF 393 renal
COLO 205 colon = system: COLO 205 colon
MDA-MB-231 breast = system: MDA-MB-231 breast
UACC-62 melanoma = system: UACC-62 melanoma
SNB-19 CNS = system: SNB-19 CNS
MDA-MB-435 = system: MDA-MB-435
ACHN renal = system: ACHN renal
DU-145 prostate = system: DU-145 prostate
HOP-92 NSCLC = system: HOP-92 NSCLC
HOP-62 NSCLC = system: HOP-62 NSCLC
T-47D breast = system: T-47D breast
SK-MEL-5 melanoma = system: SK-MEL-5 melanoma
IGROV1 ovarian = system: IGROV1 ovarian
OVCAR-8 ovarian = system: OVCAR-8 ovarian
NCI/ADR-RES ovarian = system: NCI/ADR-RES ovarian
SK-MEL-28 melanoma = system: SK-MEL-28 melanoma
RPMI-8226 leukemia = system: RPMI-8226 leukemia
HCC-2998 colon = system: HCC-2998 colon
A498 renal = system: A498 renal
OVCAR-5 ovarian = system: OVCAR-5 ovarian
NCI-H460 lung = system: NCI-H460 lung
U251 CNS = system: U251 CNS
NCI-H522 lung = system: NCI-H522 lung
MALME-3M melanoma = system: MALME-3M melanoma
SN12C renal = system: SN12C renal
LOX IMVI melanoma = system: LOX IMVI melanoma
SR leukemia = system: SR leukemia
TK-10 renal = system: TK-10 renal
K-562 leukemia = system: K-562 leukemia
CCRF-CEM leukemia = system: CCRF-CEM leukemia
UO-31 renal = system: UO-31 renal
M14 melanoma = system: M14 melanoma
SF-268 CNS = system: SF-268 CNS
HCT-116 colon = system: HCT-116 colon
NCI-H226 lung = system: NCI-H226 lung
SK-MEL-2 melanoma = system: SK-MEL-2 melanoma
OVCAR-3 ovarian = system: OVCAR-3 ovarian
PC-3 prostate = system: PC-3 prostate
BT-549 breast = system: BT-549 breast
SW-620 colon = system: SW-620 colon
SK-OV-3 ovarian = system: SK-OV-3 ovarian
HT29 colon = system: HT29 colon
OVCAR-4 ovarian = system: OVCAR-4 ovarian
SF-539 CNS = system: SF-539 CNS
HS 578T breast = system: HS 578T breast
786-0 renal = system: 786-0 renal
MOLT-4 leukemia = system: MOLT-4 leukemia
MCF7 breast = system: MCF7 breast
EKVX NSCLC = system: EKVX NSCLC
CAKI-1 renal = system: CAKI-1 renal
NCI-H23 lung = system: NCI-H23 lung
SF-295 CNS = system: SF-295 CNS
A549 NSCLC = system: A549 NSCLC

## COC[C@H](NC(=O)c1cnc(C)s1)C(=O)N[C@@H](COC)C(=O)N[C@@H](Cc1ccccc1)C(=O)[C@@]1(C)CO1
SNB-75 CNS
  GI50: 22.3 µM
  TGI: > 100 µM
HL-60(TB) leukemia
  GI50: 35 µM
  TGI: > 100 µM
UACC-257 melanoma
  GI50: 21.1 µM
  TGI: > 70.8 µM
KM12 colon
  GI50: 21.4 µM
  TGI: 56 µM
HCT-15 colon
  GI50: 31.2 µM
  TGI: > 100 µM
RXF 393 renal
  GI50: 15.5 µM
  TGI: 33.9 µM
COLO 205 colon
  GI50: 37.4 µM
  TGI: > 100 µM
MDA-MB-231 breast
  GI50: 16.2 µM
  TGI: 39 µM
UACC-62 melanoma
  GI50: 15.8 µM
  TGI: 39 µM
SNB-19 CNS
  GI50: > 65.3 µM
  TGI: > 100 µM
MDA-MB-435
  GI50: 12.9 µM
  TGI: 40 µM
ACHN renal
  GI50: 34.8 µM
  TGI: > 100 µM
DU-145 prostate
  GI50: 37.1 µM
  TGI: > 100 µM
HOP-92 NSCLC
  GI50: 30.3 µM
  TGI: > 82.4 µM
HOP-62 NSCLC
  GI50: 31.4 µM
  TGI: > 95.4 µM
T-47D breast
  GI50: 19.9 µM
  TGI: > 71.2 µM
SK-MEL-5 melanoma
  GI50: 19.9 µM
  TGI: 47.1 µM
IGROV1 ovarian
  GI50: 38.8 µM
  TGI: > 100 µM
OVCAR-8 ovarian
  GI50: > 93.2 µM
  TGI: > 100 µM
NCI/ADR-RES ovarian
  GI50: > 100 µM
  TGI: > 100 µM
SK-MEL-28 melanoma
  GI50: 27.5 µM
  TGI: > 95.1 µM
RPMI-8226 leukemia
  GI50: 18.5 µM
  TGI: > 100 µM
HCC-2998 colon
  GI50: 18.2 µM
  TGI: 37.6 µM
A498 renal
  GI50: 45.3 µM
  TGI: > 100 µM
OVCAR-5 ovarian
  GI50: 33.3 µM
  TGI: > 94 µM
NCI-H460 lung
  GI50: 37.1 µM
  TGI: > 100 µM
U251 CNS
  GI50: 47.8 µM
  TGI: > 100 µM
NCI-H522 lung
  GI50: 12.8 µM
  TGI: 63 µM
MALME-3M melanoma
  GI50: 22 µM
  TGI: 64 µM
SN12C renal
  GI50: 37.6 µM
  TGI: > 100 µM
LOX IMVI melanoma
  GI50: 17.8 µM
  TGI: 38.4 µM
SR leukemia
  GI50: > 61.4 µM
  TGI: > 100 µM
TK-10 renal
  GI50: 27.3 µM
  TGI: > 72.2 µM
K-562 leukemia
  GI50: 37.8 µM
  TGI: > 100 µM
CCRF-CEM leukemia
  GI50: 21.3 µM
  TGI: > 100 µM
UO-31 renal
  GI50: 30.9 µM
  TGI: > 100 µM
M14 melanoma
  GI50: 24.3 µM
  TGI: > 69.8 µM
SF-268 CNS
  GI50: 48.4 µM
  TGI: > 100 µM
HCT-116 colon
  GI50: 9.27 µM
  TGI: 32.6 µM
NCI-H226 lung
  GI50: 17.4 µM
  TGI: 46.6 µM
SK-MEL-2 melanoma
  GI50: 28.7 µM
  TGI: > 91.6 µM
OVCAR-3 ovarian
  GI50: 27.5 µM
  TGI: > 86.3 µM
PC-3 prostate
  GI50: 50.1 µM
  TGI: > 100 µM
BT-549 breast
  GI50: 14.3 µM
  TGI: 42.6 µM
SW-620 colon
  GI50: 21.2 µM
  TGI: > 100 µM
SK-OV-3 ovarian
  GI50: > 94.9 µM
  TGI: > 100 µM
HT29 colon
  GI50: 21.1 µM
  TGI: > 75.7 µM
OVCAR-4 ovarian
  GI50: 44.4 µM
  TGI: > 100 µM
SF-539 CNS
  GI50: 27.7 µM
  TGI: > 74.1 µM
HS 578T breast
  GI50: 26.5 µM
  TGI: > 100 µM
786-0 renal
  GI50: 50.1 µM
  TGI: > 100 µM
MOLT-4 leukemia
  GI50: 23.8 µM
  TGI: > 100 µM
MCF7 breast
  GI50: 11.1 µM
  TGI: > 100 µM
EKVX NSCLC
  GI50: 44.4 µM
  TGI: > 100 µM
CAKI-1 renal
  GI50: 38.5 µM
  TGI: > 100 µM
NCI-H23 lung
  GI50: 36.6 µM
  TGI: > 100 µM
SF-295 CNS
  GI50: 20.1 µM
  TGI: 72.7 µM
A549 NSCLC
  GI50: 42.9 µM
  TGI: > 100 µM
